These results are taken from patent US9927440B2, “Protein engineering” (priority 2009, dated 2018).

Where two headings read alike, the source gives them in different places.

One data set concerns the target SN (Staphylococcus aureus, UniProt P00644). The settings on record: cited from earlier work.
In data set [1] the target is T1, Staphylococcal nuclease (SN) (Staphylococcus aureus, UniProt P00644).
T1 construct: made in house; host or cells: cell-free TnT, E. coli BL21 Star (DE3) extract
In kind it is binding. As to conditions: SN/L36C; 35.3 °C; from single ΔΔGU measurement; read-out: apparent KD (binary complex). Here is the method: (§1) The rate of labeling of internal cysteine residues was measured by reacting 30-50 μL of ˜0.1 μM protein sample (i.e., ˜3-5 picomoles of protein) with excess IAM-biotin (1 mM unless otherwise stated) at constant temperature (25 mM MOPS, 100 mM KCl and pH 7.6). 5 μL aliquots were removed at fixed time intervals and quenched by addition of 2 μL 2M β-mercaptoethanol (Sigma; M6250). Following addition of 5 μL LDS-buffer (Invitrogen; NP0007) and heating for 2 min at 85° C., (un)labeled protein species were resolved by SDS-PAGE (Novex 4-12% Bis-Tris Gels; Invitrogen; NP0321). […] For the experiment shown in FIG. 8A, ecRBP variant L62C was modified with 1 mM IAM-biotin at 47.1° C., pH 7.6. […] Streptavidin was used to alter the electrophoretic mobility of the labeled protein (Streptavidin bands indicated by a, b, and c). […] Error bars represent the estimated uncertainty of the integrated band intensities (˜2%). For the experiment shown in FIG. 8B, SN variant L36C was labeled with IAM-biotin at 35.3° C., pH 7.6. […] At 29.3° C., 26.3° C. and 23.3° C., kint and klabel were manipulated by increasing the concentration of IAM-biotin from 1 mM to 3.16 mM.
(§2) The modulation of protein stability by binding of metals, ligands, activators, inhibitors, substrates, nucleic acid or other proteins can be used to measure binding affinities within a GUWO. For a protein with a single binding site, the free energy of ligand binding was described by
(§3) [formula] where P was the binding polynomial, [L] the total ligand concentration, and KD the apparent dissociation constant of the ligand. For proteins with multiple ligand-binding sites, P was expanded as described in Equations 21-36 below.
(§4) By thermodynamic linkage, any change in ΔGU caused predominantly by ligand binding (Scheme 1) is ΔGbind=ΔΔ^LGU=Δ^LGU−Δ^apoGU [20] where Δ^LGU and Δ^apoGU were the stability of the protein in the presence of absence of ligand respectively. Equation 20 was used to obtain apparent KD values from either the ligand dependence of ΔΔGU (by curve fitting), or from a single measurement of ΔΔGU.

In data set [2] the target is T2, Staphylococcal nuclease (SN) (Staphylococcus aureus, UniProt P00644, L118C/Q162N).
T2 construct: made in house; host or cells: cell-free TnT, E. coli BL21 Star (DE3) extract
Format: binding. The settings on record: 35.3 °C. The protocol: as §1, §2, §3, §4

For data set [3] the following is noted: literature; cited from earlier work.
Setting [4] is: Ca2+ and pdTp synergistic, read-out: affinity for SN in the presence of the other ligand.

As for `[Ca+2]` [Ca^2+], the Kd at SN (setting [4]) was around 2 µM; on SN (Serpersu et al. 1986, read-out: affinity for SN, ligand by itself), around 500 µM; in data set [1], 600 ± 200 µM. In data set [2] (1 mM Ca2+), the “increase in stability (ΔΔGU) of SN/L36C” value is 0.6 ± 0.2 kcal/mol.

On to `Cc1cn([C@H]2C[C@H](OP(=O)(O)O)[C@@H](COP(=O)(O)O)O2)c(=O)[nH]c1=O` [pdTp], for which the Kd at SN (setting [4]) is around 2 µM; in data set [1], 23 ± 4 µM. Further, the “increase in stability (ΔΔGU) of SN/L36C” value in data set [2] (50 μM pdTp) amounted to 0.7 ± 0.2 kcal/mol.

B1: wild-type ecRBP: wild-type E. coli ribose-binding protein (protein, listed as Escherichia coli)
chain: MKDTIALVVSTLNNPFFVSLKDGAQKEADKLGYNLVVLDSQNNPAKELANVQDLTVRGTKILLINPTDSDAVGNAVKMANQANIPVITLDRQATKGEVVSHIASDNVLGGKIAGDYIAKKAGEGAKVIELQGIAGTSAARERGEGFQQAVAAHKFNVLASQPADFDRIKGLNVMQNLLTAHPDVQAVFAQNDEMALGALRALQTAGKSDVMVVGFDGTPDGEKAVNDGKLAATIAQLPDQIGAKGVETADKVLKGEKVQAKYPVDLKLVVKQNGGSHHHHHH
As to B1, the Tm of wild-type in data set [3] is 62.6 °C.
